Test [1] relates to HCV genotype 1b (Con1) replicon in HUH-7 cells. Put plainly: HCV replicon luciferase reporter assay, genotype 1b. The conditions noted are these: Hepatitis C virus, Huh-7, 72 h, HCV genotype 1b replicon luciferase, 3 days incubation. It is filed as cell-based. A digest of the protocol:
(§1)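 Replicon inhibition for both genotypes was measured as Renilla luciferase signal (EnduRen, 7.5 μM final, 2 h) after 3-day, 37° C exposure of replicon-bearing HUH-7 cells in 4% FCS DMEM, 0.5% DMSO. The 1b construct carries S1179I; the 1a H77 construct carries P1496L and S2204I. Twenty-point, 3-fold dilutions were fitted four-parametrically for EC50, and CC50 was taken from multiplexed Cell Titer-Blue.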
(In general: Replicon systems follow genome replication, usually without infectious particles.)

Test [2] deals with HCV genotype 1a (H77 strain) replicon in HUH-7 cells. The test is described as follows: HCV replicon luciferase reporter assay, genotype 1a. It is filed as cell-based. The conditions noted are these: Hepatitis C virus, Huh-7, 72 h, HCV genotype 1a replicon luciferase, 3 days incubation. A digest of the protocol:
as §1

Where [3] appears, read: GETYPE1B, read-out: LE_1b (EC50, range).
Setting [4] is: GETYPE1A, read-out: LE_1a (EC50, range).

Read-outs that look alike come from different tables or passages of the source.

Broadly, the EC50 is the concentration needed to bring the measured effect to its halfway point.

Consider `CC[C@@H]1C[C@H](C)CC/C=C\[C@@H]2C[C@@]2(C(=O)NS(=O)(=O)C2CC2)NC(=O)[C@@H]2C[C@@H](Oc3ncc(N4CCOCC4)c4cc(OC)c(F)cc34)CN2C(=O)[C@H]1NC(=O)OC(C)(C)C` [Compound 4240, tert-butyl ((2R,6S,7R,9R,13aS,14aR,16aS,Z)-14a-((cyclopropylsulfonyl)carbamoyl)-7-ethyl-2-((7-fluoro-6-methoxy-4-morpholinoisoquinolin-1-yl)oxy)-9-methyl-5,16-dioxo-1,2,3,5,6,7,8,9,10,11,13a,14,14a,15,16,16a-hexadecahydrocyclopropa[e]pyrrolo[1,2-a][1,4]diazacyclopentadecin-6-yl)carbamate], for which the EC50 in test [1] (read-out: LE_1b (EC50)) is 1.09 nM; in test [1] (read-out: LE_1b (EC50, range)), 1.01 to 5 nM; in test [2] (read-out: LE_1a (EC50)), 1.23 nM; in test [2] (read-out: LE_1a (EC50, range)), 1.01 to 5 nM.

For the molecule `CC[C@@H]1C[C@H](C)CC/C=C\[C@@H]2C[C@@]2(C(=O)NS(=O)(=O)C2(C)CC2)NC(=O)[C@@H]2C[C@@H](Oc3ncc(N(C)C)c4cc(OC)ccc34)CN2C(=O)[C@H]1NC(=O)OC(C)(C)C(F)(F)F` [Compound 4241], the EC50 in test [1] (setting [3]) and in test [2] (setting [4]) was 1.01 to 5 nM throughout.

Consider `COc1ccc2c(O[C@@H]3C[C@H]4C(=O)N[C@]5(C(=O)NS(=O)(=O)C6(C)CC6)C[C@H]5/C=C\CC[C@@H](C)C[C@@H](C)[C@H](NC(=O)OC(C)(C)C)C(=O)N4C3)cc(-c3ccc(OC(C)C)cc3)nc2c1` [Compound 4242, tert-butyl ((2R,6S,7R,9R,13aS,14aR,16aS,Z)-2-((2-(4-isopropoxyphenyl)-7-methoxyquinolin-4-yl)oxy)-7,9-dimethyl-14a-(((1-methylcyclopropyl)sulfonyl)carbamoyl)-5,16-dioxo-1,2,3,5,6,7,8,9,10,11,13a,14,14a,15,16,16a-hexadecahydrocyclopropa[e]pyrrolo[1,2-a][1,4]diazacyclopentadecin-6-yl)carbamate], for which the EC50 was in the range of 0.51 to 1 nM in test [1] (read-out: LE_1b (EC50, range)) and 0.51 to 1 nM in test [2] (read-out: LE_1a (EC50, range)).

For `CC[C@@H]1C[C@H](C)CC/C=C\[C@@H]2C[C@@]2(C(=O)NS(=O)(=O)C2CC2)NC(=O)[C@@H]2C[C@@H](Oc3ncc(N4CCOCC4)c4cc(OC)c(F)cc34)CN2C(=O)[C@H]1NC(=O)OC(C)(C)C(F)(F)F` [Compound 4243], the concentration for a half-maximal effect (EC50) was in the range of 0.51 to 1 nM in test [1] (setting [3]) and 1.01 to 5 nM in test [2] (setting [4]).

Consider `CC[C@@H]1C[C@H](C)CC/C=C\[C@@H]2C[C@@]2(C(=O)NS(=O)(=O)C2(C)CC2)NC(=O)[C@@H]2C[C@@H](Oc3nc4cc(OC)ccc4nc3C(F)(F)F)CN2C(=O)[C@H]1NC(=O)OC(C)(C)C(F)(F)F` [Compound 4244], for which the concentration for a half-maximal effect (EC50) in test [1] (setting [3]) and in test [2] (setting [4]) was 1.01 to 5 nM each time.

Take `CC[C@@H]1C[C@H](C)CC/C=C\[C@@H]2C[C@@]2(C(=O)NS(=O)(=O)C2(C)CC2)NC(=O)[C@@H]2C[C@@H](Oc3cc(-n4cccn4)nc4cc(OC)ccc34)CN2C(=O)[C@H]1NC(=O)OC(C)(C)C` [Compound 4245, tert-butyl ((2R,6S,7R,9R,13aS,14aR,16aS,Z)-7-ethyl-2-((7-methoxy-2-(1H-pyrazol-1-yl)quinolin-4-yl)oxy)-9-methyl-14a-(((1-methylcyclopropyl)sulfonyl)carbamoyl)-5,16-dioxo-1,2,3,5,6,7,8,9,10,11,13a,14,14a,15,16,16a-hexadecahydrocyclopropa[e]pyrrolo[1,2-a][1,4]diazacyclopentadecin-6-yl)carbamate]: the half-maximal effective concentration (EC50) lay within 0.1 to 0.5 nM in test [1] (read-out: LE_1b (EC50, range)) and 0.51 to 1 nM in test [2] (read-out: LE_1a (EC50, range)).

In the case of `CC[C@@H]1C[C@H](C)CC/C=C\[C@@H]2C[C@@]2(C(=O)NS(=O)(=O)C2(C)CC2)NC(=O)[C@@H]2C[C@@H](Oc3cc(-n4cccn4)nc4cc(OC)ccc34)CN2C(=O)[C@H]1NC(=O)OC(C)(C)C(F)(F)F` [Compound 4246], the EC50 in test [1] (setting [3]) is 0.51 to 1 nM; in test [2] (setting [4]), 1.01 to 5 nM.

In the case of `COc1ccc2c(O[C@@H]3C[C@H]4C(=O)N[C@]5(C(=O)NS(=O)(=O)C6(C)CC6)C[C@H]5/C=C\CC[C@@H](C)C[C@@H](C)[C@H](NC(=O)OC(C)(C)C(F)(F)F)C(=O)N4C3)cc(-c3ccc(OC(C)C)c(F)c3)nc2c1` [Compound 4247], the 50% effective concentration (EC50) in test [1] (setting [3]) and in test [2] (setting [4]) was 1.01 to 5 nM each time.

Take `CCOc1cnc(O[C@@H]2C[C@H]3C(=O)N[C@]4(C(=O)NS(=O)(=O)C5CC5)C[C@H]4/C=C\CC[C@@H](C)C[C@@H](CC)[C@H](NC(=O)OC(C)(C)C(F)(F)F)C(=O)N3C2)c2ccc(OC)cc12` [Compound 4249]: the half-maximal effective concentration (EC50) fell in the range of 0.51 to 1 nM in test [1] (setting [3]) and 1.01 to 5 nM in test [2] (setting [4]).

`CC[C@@H]1C[C@H](C)CC/C=C\[C@@H]2C[C@@]2(C(=O)NS(=O)(=O)C2(C)CC2)NC(=O)[C@@H]2C[C@@H](Oc3nc4cc(OC)ccc4nc3C(C)C)CN2C(=O)[C@H]1NC(=O)OC(C)(C)C` [Compound 4250, tert-butyl ((2R,6S,7R,9R,13aS,14aR,16aS,Z)-7-ethyl-2-((3-isopropyl-7-methoxyquinoxalin-2-yl)oxy)-9-methyl-14a-(((1-methylcyclopropyl)sulfonyl)carbamoyl)-5,16-dioxo-1,2,3,5,6,7,8,9,10,11,13a,14,14a,15,16,16a-hexadecahydrocyclopropa[e]pyrrolo[1,2-a][1,4]diazacyclopentadecin-6-yl)carbamate]: the EC50 in test [1] (read-out: LE_1b (EC50, range)) was in the range of 1.01 to 5 nM; in test [2] (read-out: LE_1a (EC50, range)), 1.01 to 5 nM.

Take `CC[C@@H]1C[C@H](C)CC/C=C\[C@@H]2C[C@@]2(C(=O)NS(=O)(=O)C2(C)CC2)NC(=O)[C@@H]2C[C@@H](Oc3nc4cc(OC)ccc4nc3C(C)C)CN2C(=O)[C@H]1NC(=O)OC(C)(C)C(F)(F)F` [Compound 4251]: the EC50 in test [1] (setting [3]) and in test [2] (setting [4]) was 1.01 to 5 nM in each case.

Consider `CC[C@@H]1C[C@H](C)CC/C=C\[C@@H]2C[C@@]2(C(=O)NS(=O)(=O)C2CC2)NC(=O)[C@@H]2C[C@@H](Oc3ncc(OC)c4c(Cl)cccc34)CN2C(=O)[C@H]1NC(=O)OC(C)(C)C(F)(F)F` [Compound 4252], for which the EC50 in test [1] (setting [3]) was in the range of 0.51 to 1 nM; in test [2] (setting [4]), 1.01 to 5 nM.

Consider `CC[C@@H]1C[C@H](C)CC/C=C\[C@@H]2C[C@@]2(C(=O)NS(=O)(=O)C2(C)CC2)NC(=O)[C@@H]2C[C@@H](Oc3ncc(OC)c4c(Cl)cccc34)CN2C(=O)[C@H]1NC(=O)OC(C)(C)C(F)(F)F` [Compound 4253], for which the EC50 is 0.51 to 1 nM in test [1] (setting [3]) and 1.01 to 5 nM in test [2] (setting [4]).

As to `CC[C@@H]1C[C@H](C)CC/C=C\[C@@H]2C[C@@]2(C(=O)NS(=O)(=O)C2(C)CC2)NC(=O)[C@@H]2C[C@@H](Oc3ncc(N4CCN(S(C)(=O)=O)CC4)c4cc(OC)ccc34)CN2C(=O)[C@H]1NC(=O)OC(C)(C)C(F)(F)F` [Compound 4254], the half-maximal effective concentration (EC50) in test [1] (setting [3]) fell in the range of 0.51 to 1 nM; in test [2] (setting [4]), 1.01 to 5 nM.

With `CC[C@@H]1C[C@H](C)CC/C=C\[C@@H]2C[C@@]2(C(=O)NS(=O)(=O)C2(C)CC2)NC(=O)[C@@H]2C[C@@H](Oc3nc4cc(OC)ccc4nc3Cl)CN2C(=O)[C@H]1NC(=O)OC(C)(C)C` [Compound 4256, tert-butyl ((2R,6S,7R,9R,13aS,14aR,16aS,Z)-2-((3-chloro-7-methoxyquinoxalin-2-yl)oxy)-7-ethyl-9-methyl-14a-(((1-methylcyclopropyl)sulfonyl)carbamoyl)-5,16-dioxo-1,2,3,5,6,7,8,9,10,11,13a,14,14a,15,16,16a-hexadecahydrocyclopropa[e]pyrrolo[1,2-a][1,4]diazacyclopentadecin-6-yl)carbamate], the half-maximal effective concentration (EC50) lay within 0.1 to 0.5 nM in test [1] (read-out: LE_1b (EC50, range)) and 0.51 to 1 nM in test [2] (read-out: LE_1a (EC50, range)).

On to `CC[C@@H]1C[C@H](C)CC/C=C\[C@@H]2C[C@@]2(C(=O)NS(=O)(=O)C2(C)CC2)NC(=O)[C@@H]2C[C@@H](Oc3nc4cc(OC)ccc4nc3Cl)CN2C(=O)[C@H]1NC(=O)OC(C)(C)C(F)(F)F` [Compound 4257], for which the 50% effective concentration (EC50) was in the range of 0.51 to 1 nM in test [1] (setting [3]) and 5.01 to 35 nM in test [2] (setting [4]).

These data come from patent US9499550B2 (BRISTOL-MYERS SQUIBB COMPANY, priority 2012, dated 2016).
